Source: publication PMC9446078 (Frontiers in Endocrinology, 2022)
Where a name gives a salt, the structure may show the parent alone. Read-outs that look alike come from different tables or passages of the source.

Legend:
[1] = test system: Ea.hy926 (human endothelial cells); experiment: Scratch assay, endothelial cell migration under high glucose; format: cell-based
Experimental: (§1) High blood glucose levels hamper the migration of human fibroblasts, endothelial cells, and keratinocytes that impair wound healing ([16]–[20]). […] The detailed protocol and cytotoxicity results are provided in the Supplementary File. An actively growing culture of HFF-1 (human dermal fibroblasts), Ea.hy926 (human endothelial cells), and HaCaT (human keratinocytes) cell lines in Dulbecco’s modified Eagle’s medium containing 25 mM glucose supplemented with 10% fetal bovine serum was prepared. The cells were counted through a hemocytometer and were seeded at a density of 0.08 × 10^6 (HFF-1), 0.1 × 10^6 (Ea.hy926), and 0.2 × 10^6 (HaCaT Cells) cells/well/ml of culture medium. The plates were incubated overnight followed by serum starvation for 24 h. Scratch wounds were made in a confluent monolayer by making a straight scratch in the center of the well using a sterile 200-µl pipette microtip. […] The kinetics of migration of the cells in the wound was recorded by phase-contrast microscopy. The experiment was carried out in duplicate cells for each concentration.

[2] = parameters: method as in PMID 2879662, PMID 7957532, PMID 6135794; settings: approved (intravenous) dose; cited from earlier work
[3] = test system: HFF-1 (human dermal fibroblasts); experiment: Scratch assay, fibroblast migration under high glucose; format: cell-based
Experimental: as §1

[4] = Toxicokinetics in miniature swine; format: in vivo, Hanford miniature swine; settings: for Cmax: read-out: Cmax; for Tmax: read-out: Tmax
Experimental: (§2) A total of 40 Hanford miniature swine (20 male and 20 female) divided into four treatment groups were used for this study. A 12-week topical application of Galnobax 20% was carried out in the miniature swine wound healing model with twice-daily dosing. Six wounds (10 cm^2 each) of partial thickness were created on the dorsal region of all animals. Four wounds of each animal received twice-daily topical doses of either the vehicle or Galnobax gel, and the remaining two sites served as untreated comparative control wounds. Each group has four male and female miniature swine for the assessments and one each for the recovery period as given in Table 1 . Safety parameters in terms of ECG, clinical pathology, wound site evaluation, and toxicokinetics were performed during the study.

[5] = test system: red blood cells; experiment: Inhibition of sorbitol formation in erythrocytes; format: cell-based, human; settings: at IC50 concentration; compared with glucose-induced sorbitol levels (30 mM glucose, 3 h)
Experimental: The method in brief is discussed below. Five milliliters of blood sample was obtained from a healthy volunteer on overnight fasting in heparinized tubes. Red blood cells were separated by centrifugation and washed three times with isotonic saline at 4°C. The washed RBC were suspended in Kreb’s ringer bicarbonate buffer, pH 7.4 (preequilibrated with 5% CO2), and incubated at 37°C in the presence of 5% CO2 for 3 h under normal (3.0 mM) and high glucose (30 mM) conditions. […] At the end of the incubation period, RBC was homogenized in nine volumes of 0.8 M perchloric acid. The homogenate was centrifuged at 5,000 × g at 4°C for 10 min, and the pH of the supernatant was adjusted to 3.5 with 0.5 M potassium carbonate. The sorbitol content of the supernatant was measured by fluorometric method as described previously ([14]) using a spectrofluorometer (Jasco-FP-6500).

[6] = test system: Ea.hy926 cells; experiment: MTT cytotoxicity in Ea.hy926; format: cell-based, human; settings: Ea.hy926, all tested concentrations (0.01 to 1000 μM); <30% = non-cytotoxic
Experimental: (§3) 1. HaCaT, HFF-1 and Ea.hy926 cells were counted and plated in 96 well plates at the density corresponding to 5 X 10^3 cells/well/180 μl of cell growth medium.
(§4) 2. The above cells were then incubated overnight under growth conditions of 37°C, 95 % Humidity, 5 % CO2.so as to allow the cell recovery and exponential growth.
(§5) 3. Following overnight incubation, the above cells were serum starved in DMEM (containing 25 mM glucose) supplemented with […] for 24 h.
(§6) 5. The Ea.hy926 cells were then incubated for 24 h and HaCaT and HFF-1 cells were incubated for 48 h in CO2 incubator at 37 °C, 5 % CO2 and 95 % humidity.
(§7) 6. Following incubation, the plates were taken out and 20 μl of 5 mg/ml of MTT 3-(4,5-dimethythiazol-2-yl)-2,5-diphenyl tetrazolium bromide solution was added to all the wells followed by additional incubation for 3 h at 37 °C. The supernatant was aspirated and 150 μl of DMSO was added to each well to dissolve formazan crystals. The absorbance of each well was then read at 540 nm using Synergy HT micro plate reader.
(§8) 7. The percentage cytotoxicity at each tested concentration was calculated using the following formula:
(§9) % Cytotoxicity = (1-X/R)*100

[7] = MTT cytotoxicity in Ea.hy926; format: cell-based, human; settings: human, Ea.hy926 cells, Ea.hy926, 24 h, read-out: % Cytotoxicity w.r.t. untreated cells
Experimental: as §3, §4, §5, §6, §7, §8, §9

[8] = test system: Hanford miniature swine; experiment: 12-week dermal toxicity study in miniature swine; format: in vivo
Experimental: as §2

[9] = test system: HaCaT (human keratinocytes); experiment: Scratch assay, keratinocyte migration under high glucose; format: cell-based
Experimental: as §1

[10] = test system: HaCaT cells; experiment: MTT cytotoxicity in HaCaT; format: cell-based, human; settings: all tested concentrations (0.01 to 1000 μM), <30% = non-cytotoxic
Experimental: as §3, §4, §5, §6, §7, §8, §9

[11] = MTT cytotoxicity in HaCaT; format: cell-based, human; settings: human, HaCaT cells, 48 h, read-out: % Cytotoxicity w.r.t. untreated cells
Experimental: as §3, §4, §5, §6, §7, §8, §9

[12] = 1 and 10 µM, compared with control, high glucose
[13] = 100 and 500 µM compared with 1 and 10 µM
[14] = both sexes, Hanford, pig, blood, topical or ocular, 400 mg, Day 1, Group 2 swine, topical 400 mg Galnobax Gel, mean
[15] = both sexes, Hanford, pig, blood, topical or ocular, 400 mg, Week 12, Group 2 swine, topical 400 mg Galnobax Gel BID, mean

For `COC(=O)CCc1ccc(OCC(O)CNC(C)C)cc1` (stereo not shown) [Esmolol hydrochloride], the “migration of endothelial cells” value [1, 12] is listed as “enhanced the migration”, the “migration of endothelial cells” value [1, 13] is listed as “lower migration” and the “Cmax of the approved human dose” value [2] is listed as 868–1,470 ng/ml. For the same compound, the migration of fibroblasts [3, 12] was “enhanced the migration”, the migration of fibroblasts [3, 13] was “lower migration” and the concentration at 8 hr ([4]; both sexes, Hanford, pig (miniature swine), blood, after first topical dose of Galnobax Gel 400 mg, below the quantitation limit, read-out: blood concentration by the second daily dose (8 hr)) was under 5 ng/mL. For the same compound, the AUC(0-t) [4, 14] was 18.7 ng·h/mL, the Cmax [4, 14] was 30.3 ng/mL and the Tmax [4, 14] was 18 min. The AUC(0-t) [4, 15] was 17.5 ng·h/mL, the AUC from 0 to 8 h ([4]; both sexes, Hanford, pig, blood, topical or ocular, 400 mg, Week 12, Group 2 swine, topical 400 mg Galnobax Gel BID, mean, read-out: AUC0-8) was 35.4 ng·h/mL and the Cmax [4, 15] was 140 ng/mL. For the same compound, the Tmax [4, 15] was 22.8 min, the “accumulation after 12 weeks of twice-daily topical application” value ([4]; miniature swine, topical Galnobax) was “no apparent accumulation” and the “inhibition of sorbitol formation in red blood cells” value [5] was 59%. For the same compound, the “cytotoxicity” value [6] was “non-cytotoxic”, the cytotoxicity at 24 h, 0.01 µM ([7]; 0.01 μM) was 5.84% and the cytotoxicity at 24 h, 0.1 µM ([7]; 0.1 μM) was 1.73%. The cytotoxicity at 24 h, 1 µM ([7]; 1 μM) was 11.4%, the cytotoxicity at 24 h, 10 µM ([7]; 10 μM) was 13.8% and the cytotoxicity at 24 h, 50 µM ([7]; 50 μM) was 3.85%. It also gave a cytotoxicity at 24 h, 100 µM ([7]; 100 μM) of 2.79%, a cytotoxicity at 24 h, 500 µM ([7]; 500 μM) of 17.5% and a cytotoxicity at 24 h, 1000 µM ([7]; 1000 μM) of 12.7%. For the same compound, the “local reactions at the injection sites” value ([8]; subcutaneously administered esmolol (30 mg/kg once or twice daily) plus topical Galnobax) was “moderate to severe local reactions”, the ovary weights ([8]; subcutaneously administered esmolol plus topical Galnobax, no histopathologic changes) was “reduction in absolute and relative ovary weights” and the migration of keratinocytes [9, 12] was “enhanced the migration”. For the same compound, the migration of keratinocytes [9, 13] was “lower migration”, the “cytotoxicity” value [10] was “non-cytotoxic” and the cytotoxicity at 48 h, 0.01 µM ([11]; 0.01 μM) was -19.2%. The cytotoxicity at 48 h, 0.1 µM ([11]; 0.1 μM) was -8.02%, the cytotoxicity at 48 h, 1 µM ([11]; 1 μM) was -6.93% and the cytotoxicity at 48 h, 10 µM ([11]; 10 μM) was -14.8%. It also gave a cytotoxicity at 48 h, 50 µM ([11]; 50 μM) of -18.1%, a cytotoxicity at 48 h, 100 µM ([11]; 100 μM) of -18.5% and a cytotoxicity at 48 h, 500 µM ([11]; 500 μM) of 16.2%. The cytotoxicity at 48 h, 1000 µM ([11]; 1000 μM) was 18.3%.
